What was measured:
Assay type in all cases: in vivo
[1] = test system: Alopecurus myosuroides (ALOMY); test: Biological Example 2 glasshouse assay for herbicidal activity; details: post-emergence, 360 h, 30 g/ha, 14 or 15 DAA, 0.2% v/v X-77, read-out: percentage phytotoxicity ALOMY
Description: (§1) Seeds of a variety of monocotyledonous and dicotyledonous test plants are sown in standard soil in pots. The plants are cultivated for one day (for pre-emergence) or for about 12 days (range=10-13 days) (for post-emergence) under controlled conditions in a glasshouse (warm climate species at 24/18° C., cool climate species at 20/16° C., both at day/night; 16 hours light; 65% humidity).
(§2) An “instant formulation”, known as the “IF50”, containing 50 g/litre (i.e. 5% w/v) of the “technical” (i.e. unformulated) active ingredient is prepared by dissolving the active ingredient in a mixture of organic solvents and emulsifier, details of which are provided in the Table below. This IF50 is then mixed with a small, variable amount of acetone to aid dissolution, before addition of a 0.2% v/v aqueous solution of the adjuvant X-77 (which is a mixture of alkyl aryl polyoxyethylene glycols and free fatty acids in isopropanol, CAS Registry number 11097-66-8), as the aqueous diluent, to form an aqueous spray solution which contains a predetermined concentration of the active ingredient (which varies depending on the application rate of the active ingredient to the plants) and 0.2% v/v of the adjuvant X-77. This aqueous spray solution is then sprayed onto the plants, after one day's cultivation (for pre-emergence) or after about 12 days' cultivation (for post-emergence).
(§3) The test plants are then grown on, in a glasshouse (greenhouse) under controlled conditions (at either 24/18° C. or 20/16° C. (day/night) as mentioned above; 16 hours light; 65% humidity) and are watered twice daily. Either 14 or 15 days after application of the herbicide (14 or 15 DAA) (for post-emergence), or 20 days after application of the herbicide (20 DAA) (for pre-emergence), the test plants are evaluated visually, and an assessed percentage phytotoxicity score is given for each herbicidal application on each plant species (where 100%=total damage to plant; 0%=no damage to plant).
(§4) Some of the typical test plants are as follows: • Cool climate crop plants: Triticum aestivum (TRZAW, winter wheat), Brassica napus (BRSNN, rape, also called oilseed rape or rapeseed), Beta vulgaris (BEAVA, sugarbeet). • Warm climate crop plants: Glycine max (GLXMA, soybean). • Cool climate (“cool season”) grassy monocotyledonous weeds: Alopecurus myosuroides (ALOMY), Avena fatua (AVEFA), Lolium perenne (LOLPE), Poa annua (POAAN), Bromus tectorum (BROTE). • Warm climate (“warm season”) grassy monocotyledonous weeds: Setaria faberi (SETFA), SORVU (Sorghum bicolor (L.) Moench ssp. Bicolor, or Sorghum vulgare Pers.), Digitaria sanguinalis (DIGSA), Echinochloa crus-galli (ECHCG), Brachiaria plantaginea (BRAPL); Zea mays (ZEAMX, corn, maize, e.g. volunteer corn).

[2] = test system: Glycine max (GLXMA, soybean); test: as above; details: post-emergence, 360 h, 30 g/ha, 14 or 15 DAA, 0.2% v/v X-77, read-out: percentage phytotoxicity GLXMA
Description: as §1, §2, §3, §4

[3] = test system: Brassica napus (BRSNN, rape); test: as above; details: Brassica napus, 360 h; post-emergence, 30 g/ha, 14 or 15 DAA, 0.2% v/v X-77; read-out: percentage phytotoxicity BRSNN
Description: as §1, §2, §3, §4

[4] = test system: Beta vulgaris (BEAVA, sugarbeet); test: as above; details: post-emergence, 360 h, 30 g/ha, 14 or 15 DAA, 0.2% v/v X-77, read-out: percentage phytotoxicity BEAVA
Description: as §1, §2, §3, §4

[5] = test system: Digitaria sanguinalis (DIGSA); test: as above; details: post-emergence, 360 h, 30 g/ha, 14 or 15 DAA, 0.2% v/v X-77, read-out: percentage phytotoxicity DIGSA
Description: as §1, §2, §3, §4

[6] = test system: Lolium perenne (LOLPE); test: as above; details: post-emergence, 30 g/ha, 14 or 15 DAA; for pest or weed control at 30 g/ha: Lolium perenne, 360 h, 0.2% v/v X-77, read-out: percentage phytotoxicity LOLPE
Description: as §1, §2, §3, §4

[7] = test system: Zea mays (ZEAMX, corn, maize, e.g. volunteer corn); test: as above; details: Zea mays, post-emergence, 360 h, 30 g/ha, 14 or 15 DAA, 0.2% v/v X-77, read-out: percentage phytotoxicity ZEAMX
Description: as §1, §2, §3, §4

[8] = test system: SORVU (Sorghum bicolor (L.) Moench ssp. Bicolor, or Sorghum vulgare Pers.); test: as above; details: post-emergence, 360 h, 30 g/ha, 14 or 15 DAA, 0.2% v/v X-77, read-out: percentage phytotoxicity SORVU
Description: as §1, §2, §3, §4

[9] = test system: Brachiaria plantaginea (BRAPL); test: as above; details: Urochloa plantaginea, post-emergence, 360 h, 30 g/ha, 14 or 15 DAA, 0.2% v/v X-77, read-out: percentage phytotoxicity BRAPL
Description: as §1, §2, §3, §4

[10] = test system: Setaria faberi (SETFA); test: as above; details: post-emergence, 360 h, 30 g/ha, 14 or 15 DAA, 0.2% v/v X-77, read-out: percentage phytotoxicity SETFA
Description: as §1, §2, §3, §4

[11] = test system: Triticum aestivum (TRZAW, winter wheat); test: as above; details: post-emergence, 360 h, 30 g/ha, 14 or 15 DAA, 0.2% v/v X-77, read-out: percentage phytotoxicity TRZAW
Description: as §1, §2, §3, §4

[12] = test system: Avena fatua (AVEFA); test: as above; details: post-emergence, 360 h, 30 g/ha, 14 or 15 DAA, 0.2% v/v X-77, read-out: percentage phytotoxicity AVEFA
Description: as §1, §2, §3, §4

[13] = test system: Echinochloa crus-galli (ECHCG); test: as above; details: Echinochloa crus-galli, post-emergence, 360 h, 30 g/ha, 14 or 15 DAA, 0.2% v/v X-77, read-out: percentage phytotoxicity ECHCG
Description: as §1, §2, §3, §4

[14] = test system: Alopecurus myosuroides (ALOMY); test: Biological Example 1 glasshouse assay for herbicidal activity; details: 312 h, post-emergence, 250 g/ha, 13 days after application, read-out: percentage phytotoxicity ALOMY
Description: (§5) Seeds of a variety of test plant species were sown in standard soil** in pots. After cultivation for one day (pre-emergence) or after 8 days cultivation (post-emergence) under controlled conditions in a glasshouse (at 24/16° C., day/night; 14 hours light; 65% humidity), the plants were sprayed with an aqueous spray solution derived from the formulation of the technical active ingredient (the test herbicide) in acetone/water (50:50) solution containing 0.5% Tween 20 (polyoxyethylene sorbitan monolaurate, CAS Reg. No. 9005-64-5). The test plants were then grown on under controlled conditions in a glasshouse (at 24/16° C., day/night; 14 hours light; 65% humidity) and watered twice daily. 13 Days after application of the test herbicide, for pre- and post-emergence, the test was evaluated visually for percentage phytotoxicity to each plant (where 100%=total damage to plant; 0%=no damage to plant). Generally, each test herbicide is only tested on 1 plant per plant species for each application rate tested and for each application timing. **The “standard soil” in Biological Example 1 is usually a “sand” or “sandy loam” type of soil.
(§6) Dicotyledonous weeds: ABUTH=Abutilon theophrasti; AMARE=Amaranthus retroflexus. Grassy monocotyledonous weeds: SETFA=Setaria faberi; ALOMY=Alopecurus myosuroides; ECHCG=Echinochloa crus-galli; ZEAMX=Zea mays (corn, maize, e.g. volunteer corn).

[15] = test system: Abutilon theophrasti (ABUTH); test: as above; details: post-emergence, 312 h, post-emergence, 250 g/ha, 13 days after application, read-out: percentage phytotoxicity ABUTH
Description: as §5, §6

[16] = test system: Zea mays (ZEAMX, corn, maize, e.g. volunteer corn); test: as above; details: Zea mays, post-emergence, 312 h, post-emergence, 250 g/ha, 13 days after application; read-out: percentage phytotoxicity ZEAMX
Description: as §5, §6

[17] = test system: Amaranthus retroflexus (AMARE); test: as above; details: Amaranthus retroflexus, post-emergence, 312 h, post-emergence, 250 g/ha, 13 days after application; read-out: percentage phytotoxicity AMARE
Description: as §5, §6

[18] = test system: Setaria faberi (SETFA); test: as above; details: post-emergence, 312 h, post-emergence, 250 g/ha, 13 days after application, read-out: percentage phytotoxicity SETFA
Description: as §5, §6

[19] = test system: Echinochloa crus-galli (ECHCG); test: as above; details: Echinochloa crus-galli, post-emergence, 312 h, post-emergence, 250 g/ha, 13 days after application; read-out: percentage phytotoxicity ECHCG
Description: as §5, §6

Structure (SMILES)	pest or weed control at 30 g/ha [1]	plant injury at 30 g/ha [2]	plant injury at 30 g/ha [3]	plant injury at 30 g/ha [4]	pest or weed control at 30 g/ha [5]	pest or weed control at 30 g/ha [6]	percentage phytotoxicity LOLPE ([6]; 0.2% v/v X-77)	pest or weed control at 30 g/ha [7]	pest or weed control at 30 g/ha [8]	pest or weed control at 30 g/ha [9]	pest or weed control at 30 g/ha [10]	plant injury at 30 g/ha [11]	pest or weed control at 30 g/ha [12]	pest or weed control at 30 g/ha [13]	pest or weed control at 250 g/ha [14]	pest or weed control at 250 g/ha [15]	pest or weed control at 250 g/ha [16]	pest or weed control at 250 g/ha [17]	pest or weed control at 250 g/ha [18]	pest or weed control at 250 g/ha [19]
CCc1cc(C)cc(CC)c1C1C(=O)C2CCC(C2)C1=O (stereo not drawn) [Compound X10, reference compound]	80%	0%	0%	0%	100%	70%	70%	80%	60%	80%	100%	–	–	–	–	–	–	–	–	–
Cc1cc(C)c(C2C(=O)C3CCC(C3)C2=O)c(C)c1 (stereo not drawn) [Compound X9, reference compound]	0%	0%	0%	–	30%	0%	–	–	–	70%	70%	0%	0%	20%	–	–	–	–	–	–
CC#Cc1cc(F)c(C2C(=O)C3CCC(C)(C2=O)C3(C)C)c(OCCOC)c1 (stereo not drawn) [Compound A10]	–	–	–	–	–	–	–	–	–	–	–	–	–	–	0%	0%	40%	0%	0%	0%

Source: US10590143B2, “Herbicidally active (alkynyl-phenyl)-substituted cyclic dione compounds and derivatives thereof” (Syngenta Limited, priority 2013, dated 2020)
